Laboratory results as given in publication PMC4281142, “Fomiroid A, a Novel Compound from the Mushroom Fomitopsis nigra, Inhibits NPC1L1-Mediated Cholesterol Uptake via a Mode of Action Distinct from That of Ezetimibe” (PLoS ONE, 2014).

Legend:
NPC1L1 (rNPC1L1) [1] = target: T1, NPC1L1 (rNPC1L1) (Rattus norvegicus, UniProt Q6T3U3); test: competitive radioligand binding, [3H]ezetimibe glucuronide, HEK293/rNPC1L1 membranes (two-site fit; low-affinity site […])
T1 construct: rat NPC1L1 (GenBank AY437867), membranes from stably expressing HEK293 cells

NPC1L1 (rNPC1L1) [2] = target: T1, NPC1L1 (rNPC1L1); test: competitive radioligand binding, [3H]ezetimibe glucuronide, HEK293/rNPC1L1 membranes

Compound | IC50 (NPC1L1 (rNPC1L1) [1]) [µM] | IC50 (NPC1L1 (rNPC1L1) [2]) [µM]
CC(C)=CCCC(CO)C1CC(O)C2(C)C3=C(CCC12C)C1(C)CCC(=O)C(C)(C)C1CC3 (centres unmarked) [fomiroid A, 15, 21-dihydroxylanosta-8, 24-dien-3-one] | 4.83 ± 0.2 | 
O=C1[C@H](CC[C@H](O)c2ccc(F)cc2)[C@@H](c2ccc(O)cc2)N1c1ccc(F)cc1 [ezetimibe] |  | 0.332 ± 0.0042
